Laboratory results reported in ChEMBL document CHEMBL2440076, “New triarylpyrazoles as broad-spectrum anticancer agents: design, synthesis, and biological evaluation” (Eur J Med Chem, 2013).

Experiments:
Assay type in all cases: functional
[1] = tested on: SNB-75; test: Growth inhibition of human SNB75 cells assessed as cell growth at 5X10'-6 M after 48 hrs by sulforhodamine B assay; conditions: SNB-75, 48 h, read-out: Activity
[2] = tested on: OVCAR-5; test: Growth inhibition of human OVCAR5 cells assessed as cell growth at 3X10'-7 M after 48 hrs by sulforhodamine B assay; conditions: OVCAR-5, 48 h, read-out: Activity
[3] = tested on: UACC-62; test: Growth inhibition of human UACC62 cells assessed as cell growth at 3X10'-7 M after 48 hrs by sulforhodamine B assay; conditions: UACC-62, 48 h, read-out: Activity
[4] = tested on: M14; test: Growth inhibition of human M14 cells assessed as cell growth at 3X10'-7 M after 48 hrs by sulforhodamine B assay; conditions: M14, 48 h, read-out: Activity
[5] = tested on: SF-539; test: Growth inhibition of human SF539 cells assessed as cell growth at 3X10'-7 M after 48 hrs by sulforhodamine B assay; conditions: SF-539, 48 h, read-out: Activity
[6] = Growth inhibition of human HCC2998 cells assessed as cell growth at 3X10'-7 M after 48 hrs by sulforhodamine B assay; conditions: HCC 2998, 48 h, read-out: Activity
[7] = tested on: NCI-H522; test: Growth inhibition of human NCI-H522 cells assessed as cell growth at 3X10'-7 M after 48 hrs by sulforhodamine B assay; conditions: NCI-H522, 48 h, read-out: Activity
[8] = tested on: HOP-62; test: Growth inhibition of human HOP62 cells assessed as cell growth at 3X10'-7 M after 48 hrs by sulforhodamine B assay; conditions: HOP-62, 48 h, read-out: Activity
[9] = tested on: K562; test: Growth inhibition of human K562 cells assessed as cell growth at 3X10'-7 M after 48 hrs by sulforhodamine B assay; conditions: K562, 48 h, read-out: Activity
[10] = tested on: MDA-MB-468; test: Growth inhibition of human MDA-MB-468 cells assessed as cell growth at 3X10'-8 M after 48 hrs by sulforhodamine B assay; conditions: MDA-MB-468, 48 h, read-out: Activity
[11] = tested on: CAKI-1; test: Growth inhibition of human CAKI-1 cells assessed as cell growth at 3X10'-8 M after 48 hrs by sulforhodamine B assay; conditions: CAKI-1, 48 h, read-out: Activity
[12] = tested on: U-251; test: Growth inhibition of human U251 cells assessed as cell growth at 3X10'-8 M after 48 hrs by sulforhodamine B assay; conditions: U-251, 48 h, read-out: Activity
[13] = tested on: COLO 205; test: Growth inhibition of human COLO205 cells assessed as cell growth at 3X10'-8 M after 48 hrs by sulforhodamine B assay; conditions: COLO 205, 48 h, read-out: Activity
[14] = tested on: NCI-H322M; test: Growth inhibition of human NCI-H322M cells assessed as cell growth at 3X10'-8 M after 48 hrs by sulforhodamine B assay; conditions: read-out: Activity
[15] = tested on: HOP-62; test: Growth inhibition of human HOP62 cells assessed as cell growth at 3X10'-8 M after 48 hrs by sulforhodamine B assay; conditions: HOP-62, 48 h, read-out: Activity
[16] = tested on: A549; test: Growth inhibition of human A549/ATCC cells assessed as cell growth at 3X10'-8 M after 48 hrs by sulforhodamine B assay; conditions: A549, 48 h, read-out: Activity
[17] = tested on: BT-549; test: Growth inhibition of human BT549 cells assessed as cell growth at 3X10'-9 M after 48 hrs by sulforhodamine B assay; conditions: BT-549, 48 h, read-out: Activity
[18] = tested on: TK-10; test: Growth inhibition of human TK10 cells assessed as cell growth at 3X10'-5 M after 48 hrs by sulforhodamine B assay; conditions: TK-10, 48 h, read-out: Activity
[19] = tested on: UO-31; test: Growth inhibition of human UO31 cells assessed as cell growth at 3X10'-9 M after 48 hrs by sulforhodamine B assay; conditions: UO-31, 48 h, read-out: Activity
[20] = tested on: OVCAR-8; test: Growth inhibition of human OVCAR8 cells assessed as cell growth at 3X10'-9 M after 48 hrs by sulforhodamine B assay; conditions: OVCAR-8, 48 h, read-out: Activity
[21] = tested on: OVCAR-3; test: Growth inhibition of human OVCAR3 cells assessed as cell growth at 3X10'-9 M after 48 hrs by sulforhodamine B assay; conditions: OVCAR-3, 48 h, read-out: Activity
[22] = tested on: IGROV-1; test: Growth inhibition of human IGROV1 cells assessed as cell growth at 3X10'-9 M after 48 hrs by sulforhodamine B assay; conditions: IGROV-1, 48 h, read-out: Activity
[23] = tested on: SK-MEL-2; test: Growth inhibition of human SK-MEL-2 cells assessed as cell growth at 3X10'-5 M after 48 hrs by sulforhodamine B assay; conditions: SK-MEL-2, 48 h, read-out: Activity
[24] = tested on: SNB-19; test: Growth inhibition of human SNB19 cells assessed as cell growth at 3X10'-5 M after 48 hrs by sulforhodamine B assay; conditions: SNB-19, 48 h, read-out: Activity
[25] = tested on: SF-268; test: Growth inhibition of human SF268 cells assessed as cell growth at 3X10'-5 M after 48 hrs by sulforhodamine B assay; conditions: SF-268, 48 h, read-out: Activity
[26] = tested on: COLO 205; test: Growth inhibition of human COLO205 cells assessed as cell growth at 3X10'-5 M after 48 hrs by sulforhodamine B assay; conditions: COLO 205, 48 h, read-out: Activity
[27] = tested on: NCI-H522; test: Growth inhibition of human NCI-H522 cells assessed as cell growth at 3X10'-5 M after 48 hrs by sulforhodamine B assay; conditions: NCI-H522, 48 h, read-out: Activity
[28] = tested on: RPMI-8226; test: Growth inhibition of human RPMI8226 cells assessed as cell growth at 3X10'-5 M after 48 hrs by sulforhodamine B assay; conditions: RPMI-8226, 48 h, read-out: Activity
[29] = tested on: HL-60(TB); test: Growth inhibition of human HL-60(TB) cells assessed as cell growth at 3X10'-5 M after 48 hrs by sulforhodamine B assay; conditions: HL-60, 48 h, read-out: Activity
[30] = tested on: MDA-MB-468; test: Growth inhibition of human MDA-MB-468 cells assessed as cell growth at 3X10'-6 M after 48 hrs by sulforhodamine B assay; conditions: MDA-MB-468, 48 h, read-out: Activity
[31] = tested on: CCRF-CEM; test: Growth inhibition of human CCRF-CEM cells assessed as cell growth at 3X10'-5 M after 48 hrs by sulforhodamine B assay; conditions: read-out: Activity
[32] = Growth inhibition of human Hs 578T cells assessed as cell growth at 3X10'-6 M after 48 hrs by sulforhodamine B assay; conditions: read-out: Activity
[33] = tested on: MDA-MB-231; test: Growth inhibition of human MDA-MB-231 cells assessed as cell growth at 3X10'-6 M after 48 hrs by sulforhodamine B assay; conditions: MDA-MB-231, 48 h, read-out: Activity
[34] = tested on: OVCAR-8; test: Growth inhibition of human OVCAR8 cells assessed as cell growth at 3X10'-6 M after 48 hrs by sulforhodamine B assay; conditions: OVCAR-8, 48 h, read-out: Activity
[35] = tested on: Malme-3M; test: Growth inhibition of human MALME-3M cells assessed as cell growth at 3X10'-6 M after 48 hrs by sulforhodamine B assay; conditions: read-out: Activity
[36] = tested on: TK-10; test: Growth inhibition of human TK10 cells assessed as cell growth at 3X10'-7 M after 48 hrs by sulforhodamine B assay; conditions: TK-10, 48 h, read-out: Activity

COc1cc(-c2nn(-c3cccc(NC(=O)Nc4cccc(C(F)(F)F)c4)c3)cc2-c2ccncc2)ccc1Cl
growth at 5 µM [1]: -4%

COc1cc(-c2nn(-c3cccc(NC(=O)Nc4cc(C(F)(F)F)cc(C(F)(F)F)c4)c3)cc2-c2ccncc2)ccc1Cl
growth at 5 µM [1]: -50%

COc1cc(-c2nn(-c3cccc(NC(=O)c4cccc(C(F)(F)F)c4)c3)cc2-c2ccncc2)ccc1Cl
growth at 5 µM [1]: -2%

COc1cc(-c2nn(-c3cccc(NC(=O)c4ccc(Cl)c(C(F)(F)F)c4)c3)cc2-c2ccncc2)ccc1Cl
growth at 0.3 µM [2]: 90%
growth at 0.3 µM [3]: 92%
growth at 0.3 µM [4]: 94%
growth at 0.3 µM [5]: 91%
growth at 0.3 µM [6]: 101%
growth at 0.3 µM [7]: 89%
growth at 0.3 µM [8]: 94%
growth at 0.3 µM [9]: 115%
growth at 0.03 µM [10]: 91%
growth at 0.03 µM [11]: 93%
growth at 0.03 µM [12]: 99%
growth at 0.03 µM [13]: 97%
growth at 0.03 µM [14]: 90%
growth at 0.03 µM [15]: 96%
growth at 0.03 µM [16]: 98%
growth at 0.003 µM [17]: 96%
growth at 30 µM [18]: 44%
growth at 0.003 µM [19]: 82%
growth at 0.003 µM [20]: 100%
growth at 0.003 µM [21]: 104%
growth at 0.003 µM [22]: 94%
growth at 30 µM [23]: -10%
growth at 30 µM [24]: 29%
growth at 30 µM [25]: 23%
growth at 30 µM [26]: -13%
growth at 30 µM [27]: -7%
growth at 30 µM [28]: 5%
growth at 30 µM [29]: 23%
growth at 3 µM [30]: 52%
growth at 30 µM [31]: 4%
growth at 3 µM [32]: 43%
growth at 3 µM [33]: 27%
growth at 3 µM [34]: 50%
growth at 3 µM [35]: 20%
growth at 0.3 µM [36]: 108%
